According to US10035790B2, “RORγ modulators” (BRISTOL-MYERS SQUIBB COMPANY, priority 2012, dated 2018):

Molecular target: T1, ligand binding domain of human RORγ (A262-S507) (Homo sapiens, UniProt P51449)
T1 construct: made in house; host or cells: E. coli
T1 sequence (P51449 262-507): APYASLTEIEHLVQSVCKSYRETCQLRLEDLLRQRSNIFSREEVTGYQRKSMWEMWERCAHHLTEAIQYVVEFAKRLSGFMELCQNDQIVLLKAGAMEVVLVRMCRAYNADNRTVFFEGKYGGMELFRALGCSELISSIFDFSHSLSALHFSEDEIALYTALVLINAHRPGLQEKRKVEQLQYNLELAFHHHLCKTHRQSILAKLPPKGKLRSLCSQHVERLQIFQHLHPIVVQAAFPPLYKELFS
Assay: General RORγ SPA binding assay (competition with [3H]25-hydroxycholesterol)
Conditions: IC50, RORγ SPA binding assay, inhibition of [3H]25-hydroxycholesterol binding
Outline: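 Step one: compound meets 50 nM nickel-purified, His-tagged protein from E. coli for 15 min at room temperature (PBS, 0.5% fatty acid free BSA). Step two: radioligand is added for another 15 min. Step three: SPA beads are added for 30 min before scintillation reading and IC50 fitting.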

Row | Structure (SMILES) | IC50
1 | CC(O)(COc1ccnc(C(F)(F)F)n1)c1cnc(N)nc1C1CCN(C(=O)Oc2c(F)cccc2F)CC1 (centres unmarked) [Compound D46, 2,6-Difluorophenyl 4-[2-amino-5-(1-hydroxy-1-methyl-2-{[2-(trifluoromethyl)pyrimidin-4-yl]oxy}ethyl)pyrimidin-4-yl]piperidine-1-carboxylate] | 6.3 nM
2 | CC(O)(COc1cccc(C(F)(F)F)n1)c1cnc(N)nc1C1CCN(C(=O)Oc2c(F)cccc2F)CC1 (centres unmarked) [Compound D48, 2,6-Difluorophenyl 4-[2-amino-5-(1-hydroxy-1-methyl-2-{[6-(trifluoromethyl)pyridin-2-yl]oxy}ethyl)pyrimidin-4-yl]piperidine-1-carboxylate] | 30.3 nM
3 | CC(O)(COc1ccnc(C(F)(F)F)n1)c1cnc(N)nc1C1CCN(C(=O)Oc2ccccc2F)CC1 (centres unmarked) [Compound D49, 2-Fluorophenyl 4-[2-amino-5-(1-hydroxy-1-methyl-2-{[2-(trifluoromethyl)pyrimidin-4-yl]oxy}ethyl)pyrimidin-4-yl]piperidine-1-carboxylate] | 7.2 nM
4 | CC(O)(COc1ccnc(C(F)(F)F)n1)c1cnc(N)nc1C1CCN(C(=O)Oc2ccc(F)cc2)CC1 (centres unmarked) [Compound D50, 4-Fluorophenyl 4-[2-amino-5-(1-hydroxy-1-methyl-2-{[2-(trifluoromethyl)pyrimidin-4-yl]oxy}ethyl)pyrimidin-4-yl]piperidine-1-carboxylate] | 15 nM

Same assay, conditions: RORγ SPA binding assay, inhibition of [3H]25-hydroxycholesterol binding; read-out: IC50

Row | IC50 | Structure (SMILES)
5 | 101 nM | CC(O)(COc1ccnc(C(F)(F)F)n1)c1cnc(OCC(F)F)nc1C1CCN(C(=O)Nc2c(F)cccc2F)CC1 (centres unmarked) [Compound D41, 4-{2-[(2,2-Difluoroethyl)oxy]-5-(1-hydroxy-1-methyl-2-{[2-(trifluoromethyl)pyrimidin-4-yl]oxy}ethyl)pyrimidin-4-yl}-N-(2,6-difluorophenyl)piperidine-1-carboxamide]
6 | 348 nM | CC(O)(COc1ccnc(C(F)(F)F)n1)c1cnc(OC(CF)CF)nc1C1CCN(C(=O)Nc2c(F)cccc2F)CC1 (centres unmarked) [Compound D42, N-(2,6-Difluorophenyl)-4-[2-{[2-fluoro-1-(fluoromethyl)ethyl]oxy}-5-(1-hydroxy-1-methyl-2-{[2-(trifluoromethyl)pyrimidin-4-yl]oxy}ethyl)pyrimidin-4-yl]piperidine-1-carboxamide]
7 | 22 nM | CC(O)(COc1ccnc(C(F)(F)F)n1)c1cnc(OCCF)nc1C1CCN(C(=O)Nc2c(F)cccc2F)CC1 (centres unmarked) [Compound D43, N-(2,6-Difluorophenyl)-4-{2-[(2-fluoroethyl)oxy]-5-(1-hydroxy-1-methyl-2-{[2-(trifluoromethyl)pyrimidin-4-yl]oxy}ethyl)pyrimidin-4-yl}piperidine-1-carboxamide]
8 | 4.6 nM | COc1ncc(C(C)(O)COc2ccnc(C(F)(F)F)n2)c(C2CCN(C(=O)Nc3c(F)cccc3F)CC2)n1 (centres unmarked) [Compound D44, N-(2,6-Difluorophenyl)-4-[5-(1-hydroxy-1-methyl-2-{[2-(trifluoromethyl)pyrimidin-4-yl]oxy}ethyl)-2-(methyloxy)pyrimidin-4-yl]piperidine-1-carboxamide]
9 | 3.4 nM | COc1ncc(C(C)(O)COc2cccc(C(F)(F)F)n2)c(C2CCN(C(=O)Nc3c(F)cccc3F)CC2)n1 (centres unmarked) [Compound D45, N-(2,6-Difluorophenyl)-4-[5-(1-hydroxy-1-methyl-2-{[6-(trifluoromethyl)pyridin-2-yl]oxy}ethyl)-2-(methyloxy)pyrimidin-4-yl]piperidine-1-carboxamide]
10 | 52.9 nM | Cc1ncc(C(C)(O)Cc2cccc(C(F)(F)F)n2)c(C2CCN(C(=O)Nc3c(F)cccc3F)CC2)n1 (centres unmarked) [Compound D47, N-(2,6-Difluorophenyl)-4-(5-{1-hydroxy-1-methyl-2-[6-(trifluoromethyl)pyridin-2-yl]ethyl}-2-methylpyrimidin-4-yl)piperidine-1-carboxamide]
11 | 6.3 nM | COCC(C)(OCc1cc(C)cc(C)c1)c1cnc(C)nc1C1CCN(C(=O)Cc2c(F)cccc2F)CC1 (centres unmarked) [Compound E1, 2-(2,6-Difluorophenyl)-1-(4-(5-(2-(3,5-dimethylbenzyloxy)-1-methoxypropan-2-yl)-2-methylpyrimidin-4-yl)piperidin-1-yl)ethanone]
12 | 5.3 nM | CCOCC(C)(OCc1cc(C)cc(C)c1)c1cnc(C)nc1C1CCN(C(=O)Cc2c(F)cccc2F)CC1 (centres unmarked) [Compound E2, 2-(2,6-difluorophenyl)-1-(4-(5-(2-((3,5-dimethylbenzyl)oxy)-1-ethoxypropan-2-yl)-2-methylpyrimidin-4-yl)piperidin-1-yl)ethanone]
13 | 6.2 nM | Cc1cc(C)cc(COC(C)(COCC(O)CO)c2cnc(C)nc2C2CCN(C(=O)Cc3c(F)cccc3F)CC2)c1 (centres unmarked) [Compound E3, 2-(2,6-difluorophenyl)-1-(4-(5-(1-(2,3-dihydroxypropoxy)-2-((3,5-dimethylbenzyl)oxy)propan-2-yl)-2-methylpyrimidin-4-yl)piperidin-1-yl)ethanone]
14 | 16.7 nM | Cc1cc(C)cc(COC(C)(CO)c2cnc(C)nc2C2CCN(C(=O)Cc3c(F)cccc3F)CC2)c1 (centres unmarked) [Compound E4, 2-(2,6-difluorophenyl)-1-(4-(5-(2-((3,5-dimethylbenzyl)oxy)-1-hydroxypropan-2-yl)-2-methylpyrimidin-4-yl)piperidin-1-yl)ethanone]
15 | 10.6 nM | Cc1cc(C)cc(COC(C)(C)c2cnc(C)nc2C2CCN(C(=O)Cc3c(F)cccc3F)CC2)c1 [Compound E5, 2-(2,6-Difluorophenyl)-1-(4-(5-(2-(3,5-dimethylbenzyloxy)propan-2-yl)-2-methylpyrimidin-4-yl)piperidin-1-yl)ethanone]
16 | 45.7 nM | Cc1ncc(C(C)(C)OCc2cccc(Cl)c2)c(C2CCN(C(=O)Cc3c(F)cccc3F)CC2)n1 [Compound E6, 1-(4-(5-(2-((3-chlorobenzyl)oxy)propan-2-yl)-2-methylpyrimidin-4-yl)piperidin-1-yl)-2-(2,6-difluorophenyl)ethanone]
17 | 63 nM | Cc1ncc(C(C)(C)OCc2cccc(Cl)n2)c(C2CCN(C(=O)Cc3c(F)cccc3F)CC2)n1 [Compound E7, 1-(4-(5-(2-((6-chloropyridin-2-yl)methoxy)propan-2-yl)-2-methylpyrimidin-4-yl)piperidin-1-yl)-2-(2,6-difluorophenyl)ethanone]
18 | 79 nM | Cc1cc(C)cc(COCc2cnc(C)nc2C2CCN(C(=O)Cc3c(F)cccc3F)CC2)c1 [Compound E10, 2-(2,6-Difluorophenyl)-1-(4-(5-((3,5-dimethylbenzyloxy)methyl)-2-methylpyrimidin-4-yl)piperidin-1-yl)ethanone]
19 | 19.2 nM | Cc1cc(C)cc(COC(C)c2cnc(C)nc2C2CCN(C(=O)Cc3c(F)cccc3F)CC2)c1 (centres unmarked) [Compound E11, 2-(2,6-Difluorophenyl)-1-(4-(5-(1-(3,5-dimethylbenzyloxy)ethyl)-2-methylpyrimidin-4-yl)piperidin-1-yl)ethanone]
20 | 11 nM | Cc1ncc(C(C)(F)COc2cccc(C(F)(F)F)n2)c(C2CCN(C(=O)Nc3c(F)cccc3F)CC2)n1 (centres unmarked) [Compound E12, N-(2,6-Difluorophenyl)-4-[5-(1-fluoro-1-methyl-2-{[6-(trifluoromethyl)pyridin-2-yl]oxy}ethyl)-2-methylpyrimidin-4-yl]piperidine-1-carboxamide]
21 | 13.2 nM | Cc1ncc(C(C)(F)COc2cccc(C(F)(F)F)n2)c(C2CCN(C(=O)Nc3c(F)cccc3C(F)(F)F)CC2)n1 (centres unmarked) [Compound E13, 4-[5-(1-Fluoro-1-methyl-2-{[6-(trifluoromethyl)pyridin-2-yl]oxy}ethyl)-2-methylpyrimidin-4-yl]-N-[2-fluoro-6-(trifluoromethyl)phenyl]piperidine-1-carboxamide]
22 | 28 nM | Cc1cc(C)cc(OCC(C)(F)c2cnc(C)nc2C2CCN(C(=O)Cc3c(F)cccc3F)CC2)c1 (centres unmarked) [Compound E14, 4-{1-[(2,6-Difluorophenyl)acetyl]piperidin-4-yl}-5-{2-[(3,5-dimethylphenyl)oxy]-1-fluoro-1-methylethyl}-2-methylpyrimidine]
23 | 56.5 nM | Cc1ncc(C(C)(F)CNc2ccnc(C(F)(F)F)n2)c(C2CCN(C(=O)Nc3c(F)cccc3F)CC2)n1 (centres unmarked) [Compound E15, N-(2,6-Difluorophenyl)-4-[5-(1-fluoro-1-methyl-2-{[2-(trifluoromethyl)pyrimidin-4-yl]amino}ethyl)-2-methylpyrimidin-4-yl]piperidine-1-carboxamide]
24 | 76 nM | Cc1ncc(C(C)(C)CNc2ccnc(C(F)(F)F)n2)c(C2CCN(C(=O)Cc3c(F)cccc3F)CC2)n1 [Compound F1, 2-(2,6-Difluorophenyl)-1-(4-(2-methyl-5-(2-methyl-1-(2-(trifluoromethyl)pyrimidin-4-ylamino)propan-2-yl)pyrimidin-4-yl)piperidin-1-yl)ethanone]
25 | 26 nM | Cc1ncc(C(C)(C)CNc2nccc(C(F)(F)F)n2)c(C2CCN(C(=O)Cc3c(F)cccc3F)CC2)n1 [Compound F2, 2-(2,6-difluorophenyl)-1-(4-(2-methyl-5-(2-methyl-1-((4-(trifluoromethyl)pyrimidin-2-yl)amino)propan-2-yl)pyrimidin-4-yl)piperidin-1-yl)ethanone]
26 | 3.3 nM | Cc1ncc(C(C)(C)CNc2cccc(C(F)(F)F)n2)c(C2CCN(C(=O)Cc3c(F)cccc3F)CC2)n1 [Compound F3, N-[2-(4-{1-[(2,6-difluorophenyl)acetyl]piperidin-4-yl}-2-methylpyrimidin-5-yl)-2-methylpropyl]-6-(trifluoromethyl)pyridin-2-amine]
